Assay [1] addresses Kappa-type opioid receptor (Cavia porcellus, UniProt P41144). Put plainly: Displacement of […] from Hartley guinea pig kappa opioid receptor by liquid scintillation counter.
The next assay deals with Mu-type opioid receptor (Cavia porcellus, UniProt P97266). As to the kind of experiment: Displacement of [3H]DAMGO from Hartley guinea pig mu opioid receptor by liquid scintillation counter.
Assay [2] can be described thus: Displacement of [3H]NTI from Hartley guinea pig delta opioid receptor by liquid scintillation counter. Also noted: species or system Cavia porcellus.

Mu-type opioid receptor, sequence (P97266 whole entry): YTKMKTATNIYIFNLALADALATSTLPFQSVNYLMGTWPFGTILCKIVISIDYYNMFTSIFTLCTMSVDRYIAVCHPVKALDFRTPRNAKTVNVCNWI
Kappa-type opioid receptor, sequence (P41144 whole entry): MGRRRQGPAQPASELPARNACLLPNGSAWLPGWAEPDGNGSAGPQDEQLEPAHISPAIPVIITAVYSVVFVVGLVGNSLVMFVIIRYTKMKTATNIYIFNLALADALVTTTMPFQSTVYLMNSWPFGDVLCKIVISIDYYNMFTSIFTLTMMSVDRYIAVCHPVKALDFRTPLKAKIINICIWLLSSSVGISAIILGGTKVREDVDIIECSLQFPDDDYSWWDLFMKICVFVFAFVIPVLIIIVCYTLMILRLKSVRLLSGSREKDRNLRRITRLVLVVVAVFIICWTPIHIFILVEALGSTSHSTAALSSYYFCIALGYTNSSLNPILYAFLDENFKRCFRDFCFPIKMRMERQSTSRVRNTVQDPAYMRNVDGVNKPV

As to `O=C1c2ccccc2N[C@@]12C[C@]13CCN(CC4CC4)[C@H](Cc4ccc(O)cc41)[C@]3(O)C2`, the Ki in assay [1] amounted to 13.4 nM; at Mu-type opioid receptor, 0.75 nM; in assay [2], 2.9 nM.

The compound `CN1CC[C@]23c4c5ccc(O)c4O[C@H]2C(=O)C2(Cc4ccccc4C2)C[C@@]3(O)[C@H]1C5` [SPIROINDANYLOXYMORPHONE] had a Ki in assay [2] of 1.4 nM.
